Assay results taken from patent publication US8114862B2, “TGR5 modulators and methods of use thereof” (Intercept Pharmaceuticals, Inc., priority 2008, dated 2012).
Like-named read-outs stand apart in the source and are kept apart here. Marks after values point to notes of the source that are not given here.

Experiments:
[1] = target: T1, hFXR (Homo sapiens, UniProt Q96RI1); assay: FXR luciferase reporter assay in COS1 cells; type: cell-based
T1 construct: expressed in transfected cells; host or cells: COS1 cells

[2] = target: T2, TGR5 (Homo sapiens, UniProt Q8TDU6); assay: CRE-driven luciferase reporter assay in TGR5-transfected CHO cells; type: cell-based; design: host or cells: CHO cells
T2 sequence (Q8TDU6 1-330): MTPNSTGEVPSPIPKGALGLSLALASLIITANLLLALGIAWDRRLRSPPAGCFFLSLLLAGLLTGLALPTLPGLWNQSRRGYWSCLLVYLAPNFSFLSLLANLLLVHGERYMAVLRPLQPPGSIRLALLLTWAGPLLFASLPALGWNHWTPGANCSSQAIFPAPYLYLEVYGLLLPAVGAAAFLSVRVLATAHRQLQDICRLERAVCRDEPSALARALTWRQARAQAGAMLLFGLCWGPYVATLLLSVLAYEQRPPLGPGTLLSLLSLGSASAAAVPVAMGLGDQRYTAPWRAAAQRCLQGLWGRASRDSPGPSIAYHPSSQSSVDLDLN

[3] = target: T2, TGR5; assay: TGR5 receptor in vitro assay (Table 1); type: cell-based
[4] = target: human FXR (Homo sapiens, UniProt Q96RI1); assay: FRET recruitment of SRC-1 peptide to human FXR, cell-free ELiSA
[5] = target: T2, TGR5; assay: Direct comparison 6-ethyl vs 6-methyl 23-methyl cholic acid: TGR5; type: cell-based
[6] = target: T3, FXR (Homo sapiens, UniProt Q96RI1); assay: Direct comparison 6-ethyl vs 6-methyl 23-methyl cholic acid: FXR; type: biochemical
T3 sequence (Q96RI1 262-486 limits assumed): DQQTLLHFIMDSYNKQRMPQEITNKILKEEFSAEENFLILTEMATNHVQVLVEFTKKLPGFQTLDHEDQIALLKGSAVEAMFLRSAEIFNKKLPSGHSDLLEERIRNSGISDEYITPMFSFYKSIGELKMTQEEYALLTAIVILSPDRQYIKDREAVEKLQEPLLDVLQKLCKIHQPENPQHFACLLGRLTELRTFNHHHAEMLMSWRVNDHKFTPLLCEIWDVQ

[7] = Choleretic effect (bile flow) in bile fistula rat, id and iv infusion; type: in vivo; details: 1 (μmol/min)/kg bw over 1 h
[8] = Biliary secretion and metabolism in bile fistula rat, id and iv infusion; details: rat, in vivo, 1 μmol/kg/min
[9] = Previous study of OA tolerability in animals; type: in vivo
Description: Therefore, OA was administered at the dose of 50 mg/kg/d in this study.

[10] = in vitro; details: human
[11] = values from literature; cited from earlier work
[12] = target: bovine serum albumin (Bos taurus, UniProt P02769); details: values from literature; cited from earlier work
[13] = values from literature; cited from earlier work; remark: listed apart in the source

T1 sequence (Q96RI1 whole entry): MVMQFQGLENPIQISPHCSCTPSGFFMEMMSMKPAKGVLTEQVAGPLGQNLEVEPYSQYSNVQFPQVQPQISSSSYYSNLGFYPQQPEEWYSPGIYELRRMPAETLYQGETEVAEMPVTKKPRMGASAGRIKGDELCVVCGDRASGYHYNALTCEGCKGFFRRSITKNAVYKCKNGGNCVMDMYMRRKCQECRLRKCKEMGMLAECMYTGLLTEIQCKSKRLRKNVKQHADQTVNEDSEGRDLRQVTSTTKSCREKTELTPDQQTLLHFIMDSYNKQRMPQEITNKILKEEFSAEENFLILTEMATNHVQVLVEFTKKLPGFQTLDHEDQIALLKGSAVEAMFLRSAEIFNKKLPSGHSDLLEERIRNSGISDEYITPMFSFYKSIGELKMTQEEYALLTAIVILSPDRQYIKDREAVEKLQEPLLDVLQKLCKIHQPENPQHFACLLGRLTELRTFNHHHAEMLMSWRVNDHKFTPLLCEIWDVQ
T1 sequence (P28700 whole entry partner): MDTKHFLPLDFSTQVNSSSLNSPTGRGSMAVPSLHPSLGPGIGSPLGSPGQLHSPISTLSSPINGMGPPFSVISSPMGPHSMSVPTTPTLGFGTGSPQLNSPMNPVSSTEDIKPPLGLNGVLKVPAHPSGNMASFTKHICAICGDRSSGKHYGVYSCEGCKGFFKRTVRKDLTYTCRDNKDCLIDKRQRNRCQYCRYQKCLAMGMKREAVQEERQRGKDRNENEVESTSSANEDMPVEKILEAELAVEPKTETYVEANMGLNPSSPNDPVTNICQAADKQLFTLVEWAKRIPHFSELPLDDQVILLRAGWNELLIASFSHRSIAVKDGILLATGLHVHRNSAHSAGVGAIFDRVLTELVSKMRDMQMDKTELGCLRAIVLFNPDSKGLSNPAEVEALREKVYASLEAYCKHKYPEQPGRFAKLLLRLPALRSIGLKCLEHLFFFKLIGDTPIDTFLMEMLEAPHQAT
Sequence of human FXR (Q96RI1 whole entry): as the sequence (Q96RI1 whole entry) above
Sequence of bovine serum albumin (P02769 25-607): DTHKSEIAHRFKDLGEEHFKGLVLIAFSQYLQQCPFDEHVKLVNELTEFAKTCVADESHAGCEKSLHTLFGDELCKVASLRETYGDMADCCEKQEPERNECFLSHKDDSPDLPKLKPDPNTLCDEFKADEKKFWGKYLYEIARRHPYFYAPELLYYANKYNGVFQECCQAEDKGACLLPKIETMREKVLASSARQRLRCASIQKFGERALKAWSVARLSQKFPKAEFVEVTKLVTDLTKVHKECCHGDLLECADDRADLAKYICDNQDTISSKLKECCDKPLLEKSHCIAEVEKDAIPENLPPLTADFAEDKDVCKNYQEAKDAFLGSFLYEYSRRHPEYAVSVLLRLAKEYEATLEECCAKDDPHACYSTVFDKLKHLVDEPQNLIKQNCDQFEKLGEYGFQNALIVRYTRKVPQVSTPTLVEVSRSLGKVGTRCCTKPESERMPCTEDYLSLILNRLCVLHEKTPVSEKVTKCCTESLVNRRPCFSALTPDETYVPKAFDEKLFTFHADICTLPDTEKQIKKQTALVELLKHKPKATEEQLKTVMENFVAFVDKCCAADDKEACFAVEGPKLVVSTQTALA

C[C@H]1[C@@H](O)C2C3CC[C@H]([C@H](C)C[C@H](C)C(=O)O)[C@@]3(C)[C@@H](O)CC2[C@@]2(C)CC[C@@H](O)C[C@@H]12 (stereo partly drawn)
FXR Efficacy ([1]; % of activity vs. 10 μM 6ECDCA): 0.76% | EC50 ([1]; Table 3): 22.8 µM | EC50 ratio (TGR5/FXR) [2]: 0.035 | TGR5 Efficacy ([2]; % of activity vs. 10 μM LCA): 75.6% | EC50 ([2]; Table 3): 0.8 µM

C[C@H]1[C@@H](O)C2C3CC[C@H]([C@H](C)CCC(=O)O)[C@@]3(C)CCC2[C@@]2(C)CC[C@@H](O)C[C@@H]12 (stereo partly drawn) [Compound 6α-MeCDCA]
EC50 [3]: 0.37 µM | TGR5 Data Efficacy [3]: 119% | EC50 [4]: 0.21 µM | FXR Data Efficacy [4]: 148%

C[C@H]1[C@@H](O)[C@@H]2[C@H](C[C@H](O)[C@]3(C)[C@@H]([C@H](C)C[C@H](C)C(=O)O)CC[C@@H]23)[C@@]2(C)CC[C@@H](O)C[C@@H]12 [Ih3, 23(S)-Methyl-6α-methyl-3α,7α,12α-trihydroxy-5β-cholan-24-oic acid]
EC50 ([5]; first experiment, read-out: TGR5 I exp EC50): 1.7 µM | EC50 ([5]; second experiment, read-out: TGR5 II exp EC50): 3 µM | EC50 ([6]; first experiment, read-out: FXR I exp EC50): 10 µM | EC50 ([6]; second experiment, read-out: FXR II exp EC50): 7.8 µM

CC[C@H]1[C@@H](O)[C@@H]2[C@H](C[C@H](O)[C@]3(C)[C@@H]([C@H](C)C[C@@H](C)C(=O)O)CC[C@@H]23)[C@@]2(C)CC[C@@H](O)C[C@@H]12 [Ii3e, 6α-ethyl-(23R)-methyl-3α,7α,12α trihydroxy-5β-cholan-24-oic acid]
SV0: maximum bile secretion rate ([7]; id infusion): 81 ± 8 (μL/min)/kg bw | SV0: maximum bile secretion rate ([7]; iv infusion): (90 ± 5) (μL/min)/kg bw | fraction unbound at 4 h [8]: 0.68 ± 0.08 | fraction unbound at 4 h ([8]; iv): 0.65

CC1(C)CC[C@]2(C(=O)O)CC[C@]3(C)C(=CC[C@@H]4[C@@]5(C)CC[C@H](O)C(C)(C)[C@@H]5CC[C@]43C)[C@@H]2C1 [OA, oleanolic acid]
toxicity ([9]; 100 mg/kg/day): some signs of toxicity | tolerability ([9]; lower dose): well tolerated

CN[C@@H]1C[C@H]2O[C@@](C)([C@@H]1OC)n1c3ccccc3c3c4c(c5c6ccccc6n2c5c31)C(=O)NC4 [Staurosporine]
EC50 at 4 h [10]: 15 µM

C[C@H](CCC(=O)NCCS(=O)(=O)O)[C@H]1CC[C@H]2[C@@H]3[C@H](O)C[C@@H]4C[C@H](O)CC[C@]4(C)[C@H]3CC[C@]12C [TCDCA]
CMC […] Na+ [11]: 3.0* mM | Albumin Binding [12]: 70* % | LogPA- (1-octanol-water partition coefficient, ionized species) [13]: 0.9*

C[C@H](CCC(=O)NCCS(=O)(=O)O)[C@H]1CC[C@H]2[C@@H]3[C@@H](O)C[C@@H]4C[C@H](O)CC[C@]4(C)[C@H]3CC[C@]12C [TUDCA]
CMC […] Na+ [11]: 2.2* mM | Albumin Binding [12]: 67* % | LogPA- (1-octanol-water partition coefficient, ionized species) [13]: 1.1*

CC/C(=C(\c1ccccc1)c1ccc(OCCN(C)C)cc1)c1ccccc1 [Tamoxifen]
EC50 at 4 h ([10]; HepG2 cells): 47 µM
